Test results as given in PubChem BioAssay (NCI).
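Tested at 5 concentrations; 48 h exposure; 96-well plates; endpoints linearly interpolated, else capped at highest concentration. TGI is the concentration that stops growth completely.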

What was measured:
Assay in all cases: NCI tumour cell line growth inhibition, 48 h
[1] = system: A549 NSCLC
[2] = system: HCT-15 colon
[3] = system: MDA-MB-231 breast
[4] = system: MOLT-4 leukemia
[5] = system: OVCAR-3 ovarian
[6] = system: OVCAR-5 ovarian
[7] = system: OVCAR-8 ovarian
[8] = system: SK-MEL-28 melanoma
[9] = system: SW-620 colon
[10] = system: U251 CNS

`COc1cc(-c2coc3c(OC)c(OC4OC(COC5OC(C)C(O)C(O)C5O)C(O)C(O)C4O)c(OC)c(O)c3c2=O)cc(C)c1O` (stereo not given) showed a TGI [1] greater than 100 µM, a TGI [2] of 40.9 µM and a TGI [3] greater than 100 µM. It also gave a TGI [4] of 19.4 µM, a TGI [5] of 47.2 µM and a TGI [6] of 45.5 µM. It also gave a TGI [7] greater than 100 µM, a TGI [8] of 34.4 µM and a TGI [9] of 30.9 µM. The TGI [10] was 32.9 µM.
